According to patent publication US5962275A, “Method for the enzymatic galactosylation of monosaccharides and oligosaccharides” (Hoechst Aktiengesellschaft, priority 1995, dated 1999):
“Also recorded” adds a separate entry of the source. Read-outs that look alike come from different tables or passages of the source.

What was measured:
Type in all cases: biochemical
UDP-glucose 4'-epimerase [1] = target: T1, UDP-glucose 4'-epimerase (Saccharomyces cerevisiae, UniProt P04397); assay: Reactivation of the inactivated epimerase with activator; details: for time after which renewed inactivation of the epimerase is observed: activator 0.1 mM, galactose and UMP still present in the mixture
T1 sequence (P04397 whole entry): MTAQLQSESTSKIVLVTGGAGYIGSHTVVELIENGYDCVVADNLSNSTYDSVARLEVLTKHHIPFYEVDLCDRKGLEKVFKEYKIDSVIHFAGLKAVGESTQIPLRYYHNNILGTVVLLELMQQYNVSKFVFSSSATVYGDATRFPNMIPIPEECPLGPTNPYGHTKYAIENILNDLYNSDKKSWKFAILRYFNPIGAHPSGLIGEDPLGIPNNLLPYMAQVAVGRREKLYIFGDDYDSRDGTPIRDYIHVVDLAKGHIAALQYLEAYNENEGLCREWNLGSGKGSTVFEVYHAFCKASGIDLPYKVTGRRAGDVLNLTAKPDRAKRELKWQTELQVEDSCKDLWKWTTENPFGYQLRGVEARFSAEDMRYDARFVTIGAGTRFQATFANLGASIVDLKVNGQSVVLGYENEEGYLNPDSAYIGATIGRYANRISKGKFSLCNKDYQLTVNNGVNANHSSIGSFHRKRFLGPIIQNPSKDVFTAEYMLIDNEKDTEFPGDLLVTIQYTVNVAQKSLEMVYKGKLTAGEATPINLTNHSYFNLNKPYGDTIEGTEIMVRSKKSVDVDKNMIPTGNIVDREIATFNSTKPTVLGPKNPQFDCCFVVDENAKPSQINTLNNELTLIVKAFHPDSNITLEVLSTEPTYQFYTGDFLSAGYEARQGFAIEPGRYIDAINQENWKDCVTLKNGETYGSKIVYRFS
Experimental: Both dUDP-6-deoxy-D-xylo-4-hexulose and dTDP-6-deoxy-D-xylo-4-hexulose, and also 6-deoxyglucosone, galactosone, allosone and glucosone, were used for reactivating the epimerase.
2. Inactivation of the epimerase
1 mg/ml bovine serum albumin (BSA)
3. Activation of the epimerase
160 μl of inactivated epimerase
40 μl of activator (different concentrations)

UDP-glucose 4'-epimerase [2] = target: T1, UDP-glucose 4'-epimerase; assay: Stability (rel. activity) of the epimerase in the presence of various donors and acceptors of GalT; details: for inactivation of the epimerase (in words): donors and acceptors of GalT, acceptors in the presence of UMP
Experimental: 893 μl of 100 mM glycine buffer, pH 8.8
In order to examine the thesis that the inactivation of the epimerase can occur in association with many applications, the stability of the epimerase was tested in the presence of various donors and acceptors of GalT.
P: 200 mM HepesNaOH, pH 7.2, 1 mM DTT, 1 mg/ml BSA, 25 mM KCl containing
R: Activity following reactivation of the epimerase with
dTDP6-deoxy-D-xylo-4-hexulose (c = 0.1 mM)

UDP-glucose 4'-epimerase [3] = target: T1, UDP-glucose 4'-epimerase; assay: Inactivation of the epimerase by sugar in the presence of UMP; details: 500 mM sucrose, 0.1 mM UMP, Hepes pH 7.2, 30° C., 8 hours
Experimental: A: 200 mM Hepes pH 7.2, 1 mM DTT, 1 mg/ml BSA B: 200 mM Hepes pH 7.2, 1 mM DTT, 1 mg/ml BSA, 500 mM sucrose A. Buffer solution A B. Buffer solution A, 0.1 mM UMP C. Buffer solution B D. […] Incubation temperature: 30° C. Activity test: (Fukusawa et al., J. Biol. Chem. 255, 2705-2707 (1980)) | 893 μl of 100 mM glycine buffer, pH 8.8 | 20 μl of 5 mM UDP-Gal | 20 μl of 50 mM NAD […] |33.3 μl of epimerase Temperature: 25° C. Measurement at 340 nm

[4] = inactivated epimerase plus activator, different concentrations
[5] = 2 h, pH 7.2, read-out: Rel. activity of the epimerase, incubation time 2h
[6] = 2 h, acceptor 50 mM, buffer P pH 7.2 containing 0.1 mM UMP, read-out: Rel. activity of the epimerase, incubation time 2h
[7] = acceptor 50 mM, buffer P pH 7.2 containing 0.1 mM UMP

## C[C@H]1O[C@H](OP(=O)(O)OP(=O)(O)OC[C@H]2O[C@@H](n3ccc(=O)[nH]c3=O)C[C@@H]2O)[C@H](O)[C@@H](O)C1=O [dUDP-6-deoxy-D-xylo-4-hexulose]
UDP-glucose 4'-epimerase [1]
  reactivation of the epimerase (in words): can be used to reactivate; also recorded: successfully employed to reactivate the epimerase
  time after which renewed inactivation of the epimerase is observed: 32 h
UDP-glucose 4'-epimerase [1]; 1 mM activator, activity monitored over […]
  activation of the epimerase (in words): rapid activation of the epimerase, with the activation being stable over the period of observation
UDP-glucose 4'-epimerase [1]; [4]
  activation of the epimerase (in words): rapid and long-lasting activation

## OC[C@H]1OC(O)C[C@@H](O)[C@@H]1O (stereo partly drawn) [2-Deoxyglc, 2-deoxy-D-glucose]
UDP-glucose 4'-epimerase [2]; [5]
  activity at 50000 µM: 20.7%
UDP-glucose 4'-epimerase [2]
  inactivation of the epimerase (in words): inactivated

## OC[C@H]1SC(O)[C@H](O)[C@@H](O)[C@@H]1O (stereo partly drawn) [Thioglc, 5-thio-D-glucose]
UDP-glucose 4'-epimerase [2]; [6]
  activity at 50000 µM: 87.9%
UDP-glucose 4'-epimerase [2]; [7]
  Rel. activity of the epimerase, incubation time 7h: 34.3
UDP-glucose 4'-epimerase [2]
  inactivation of the epimerase (in words): inactivated

## OC[C@H]1OC(O)[C@H](O)[C@@H](O)[C@H]1O (stereo partly shown) [galactose]
UDP-glucose 4'-epimerase [1]; 50 mM galactose, 0.1 mM UMP, 0.25 mg/ml epimerase, 2 h at 30° C.
  measured activity of the epimerase after inactivation: 3%

## OC[C@H]1O[C@@](CO)(O[C@H]2O[C@H](CO)[C@@H](O)[C@H](O)[C@H]2O)[C@@H](O)[C@@H]1O [sucrose]
UDP-glucose 4'-epimerase [3]
  inactivation of the epimerase (in words): inactivated

## OC[C@H]1OC(O)[C@H](O)[C@@H](O)[C@@H]1O (stereo partly shown) [Glc, glucose]
UDP-glucose 4'-epimerase [2]; [5]
  activity at 50000 µM: 15.8%
UDP-glucose 4'-epimerase [2]
  inactivation of the epimerase (in words): inactivated

## Cc1cn([C@H]2C[C@H](O)[C@@H](COP(=O)(O)OP(=O)(O)O[C@H]3O[C@H](C)C(=O)[C@H](O)[C@H]3O)O2)c(=O)[nH]c1=O [dTDP-6-deoxy-D-xylo-4-hexulose]
UDP-glucose 4'-epimerase [1]
  reactivation of the epimerase (in words): can be used to reactivate
  time after which renewed inactivation of the epimerase is observed: 32 h
UDP-glucose 4'-epimerase [1]; [4]
  activation of the epimerase (in words): rapid and long-lasting activation

## CC(=O)N[C@H]1C(O)O[C@H](CO)[C@@H](O)[C@@H]1O (stereo partly shown) [GlcNAc, N-acetylglucosamine]
UDP-glucose 4'-epimerase [2]; [6]
  activity at 50000 µM: 93.6%
UDP-glucose 4'-epimerase [2]; [7]
  Rel. activity of the epimerase, incubation time 7h: 97.5

## CCCCCCCCOC1O[C@H](CO)[C@@H](O)[C@H](O)[C@H]1O (stereo partly shown) [n-Octylglucopyranoside, n-octylglucopyranoside]
UDP-glucose 4'-epimerase [2]; [6]
  activity at 50000 µM: 86.1%
UDP-glucose 4'-epimerase [2]; 8 h, acceptor 50 mM, buffer P pH 7.2 containing 0.1 mM UMP, read-out: Rel. activity of the epimerase, incubation time 8h
  activity at 50000 µM: 29.3%
UDP-glucose 4'-epimerase [2]; [7]
  Rel. activity of the epimerase, incubation time 7h: 75.6
UDP-glucose 4'-epimerase [2]
  inactivation of the epimerase (in words): inactivated
